Experimental findings from patent US20230114728A1 (Venatorx Pharmaceuticals, Inc., priority 2019, published 2023) are described below.

pEC50: −log10 of the molar value. Bounds are passed on as bounds.

One test addresses T1, E. coli K12 PBP1b (Escherichia coli, UniProt P02919).
T1 construct: made in house
Briefly: Radioligand competition binding assay with 14C-labeled boronic acid probe, E. coli PBP1b. Conditions: PBP1a/PBP1b at 0.1 μM, Compound A at 20 μM; E. coli PBP1b; read-out: EC50 (the concentration of inhibitor required to reduce binding of Compound A by 50%). An excerpt:
(§1) Example II: Experimental Method to Assess Binding to Penicillin-Binding Proteins: Radioligand Competition Binding Assay
(§2) To determine the ability of boronic acid-based test PBP inhibitors to bind Penicillin Binding Proteins (PBPs), a radio-labelled boronic acid PBP inhibitor:
was used in competition binding assays to determine boronic acid PBP inhibitor binding to PBP1a or PBP1b from Escherichia coli. PBP1a and PBP1b were purified as described previously (Bertsche, U.; et al., J Biol. Chem. 2005, 280 (45), 38096-38101; Born, P.; et al., J Biol. Chem. 2006. 281 (37), 26985-26993). To establish assay conditions for competition binding, an enzyme titration/saturation binding experiment was performed. Saturation binding was performed in a buffer comprised of 20 mM Tris (pH 7.5), 500 mM NaCl and 0.1% (v/v) TritonX-100, with PBP1a/PBP1b at a final concentration of 0.1 μM and Compound A at final concentrations ranging from 0-100 μM. Mixtures were incubated for 60 minutes, then applied to Zeba Spin Desalting columns or plates (ThermoFisher Scientific) and centrifuged at 1000-1500×g for 2 minutes. The flow through, containing PBP bound with Compound A, was recovered and 100 μL mixed with 5 mL of UltimaGold liquid scintillation cocktail (Perkin Elmer), and the radioactivity counted using a Beckman Coulter LS 6500 Multipurpose scintillation counter. PBP binding of Compound A approached saturation at 20 μM of ^14C-labeled probe. The competition binding assay was validated using the beta-lactam ampicillin, with Compound A at a final concentration of 20 μM, PBP1a/PBP1b at a final concentration of 0.1 μM. PBP1a/PBP1b was incubated with ampicillin in a 96-well microplate for 60 minutes, then Compound A was added and the mixtures incubated for an additional 60 minutes. The mixtures were then applied to Zeba Spin desalting plates and centrifuged at 1000×g for 2 minutes. The flow through was recovered and 100 μl mixed with 5 ml of UltimaGold liquid scintillation cocktail and the radioactivity counted. […] Binding assays with boronic acid PBP inhibitors were performed in an identical fashion. […]

The next test addresses T2, E. coli K12 PBP1a (Escherichia coli, UniProt P02918).
T2 construct: made in house
Briefly: Radioligand competition binding assay with 14C-labeled boronic acid probe, E. coli PBP1a. Particulars: PBP1a/PBP1b at 0.1 μM, Compound A at 20 μM, read-out: EC50 (the concentration of inhibitor required to reduce binding of Compound A by 50%).
From the text: as §1, §2
was used in competition binding assays to determine boronic acid PBP inhibitor binding to PBP1a or PBP1b from Escherichia coli. PBP1a and PBP1b were purified as described previously (Bertsche, U.; et al., J Biol. Chem. 2005, 280 (45), 38096-38101; Born, P.; et al., J Biol. Chem. 2006. 281 (37), 26985-26993). To establish assay conditions for competition binding, an enzyme titration/saturation binding experiment was performed. Saturation binding was performed in a buffer comprised of 20 mM Tris (pH 7.5), 500 mM NaCl and 0.1% (v/v) TritonX-100, with PBP1a/PBP1b at a final concentration of 0.1 μM and Compound A at final concentrations ranging from 0-100 μM. […] The flow through, containing PBP bound with Compound A, was recovered and 100 μL mixed with 5 mL of UltimaGold liquid scintillation cocktail (Perkin Elmer), and the radioactivity counted using a Beckman Coulter LS 6500 Multipurpose scintillation counter. […] The flow through was recovered and 100 μl mixed with 5 ml of UltimaGold liquid scintillation cocktail and the radioactivity counted. […]

Another test has as its target A. baumannii PBP3 (Acinetobacter baumannii, UniProt A0ABX6CK25). The experiment in a line: Bocillin-FL fluorescence polarization competition binding assay, A. baumannii PBP3. A digest of the protocol:
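Fluorescence polarization (ex 490/em 520 nm) competition of inhibitors against Bocillin-FL at 0.1 μM, read up to 60 min. Final PBP levels: E. coli PBP3 1.5 μM; A. baumannii PBP2 2.5 μM, PBP3 0.2 μM in Tris pH 8.0/NaCl/glycerol/Tween 20; N. gonorrhoeae PBP2 […] in Hepes pH 8.0/NaCl/glycerol. EC50 = concentration halving PBP-bound Bocillin-FL.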
(In fluorescence polarisation assays a small probe gives low polarisation when free and higher when bound to something large.)

For another test, the target named is T3, E. coli K12 PBP4 (Escherichia coli, UniProt P24228).
T3 construct: made in house
Briefly: Bocillin-FL fluorescence polarization competition binding assay, E. coli PBP4. Particulars: E. coli PBP4; assay validation with beta-lactams; read-out: EC50 (concentration of beta-lactam required to reduce the amount of PBP bound-Bocillin-FL by 50%). From the text:
(§3) Example I: Experimental Method for Penicillin-Binding Protein Binding Assays with Bocillin-FL Via Fluorescence Polarization
To determine the ability of boronic acid-based test PBP inhibitors to bind Penicillin Binding Proteins (PBPs), Bocillin-FL (fluorescently-labeled penicillin V; ThermoFisher Scientific) was used in a fluorescence polarization (FP) competition binding assay to assess inhibitor binding to PBP2, PBP3 or PBP4 from Escherichia coli (K12), PBP3 from Pseudomonas aeruginosa (PA01), PBP1a, PBP2 and PBP3 from Acinetobacter baumannii (ATCC 19606), and PBP2 from Neiserria gonorrheae (FA19). PBPs were cloned and purified as described previously (E. coli PBPs, King, D. T, et al., ACS Infectious Diseases 2015, 1, 175-184; P. aeruginosa PBP3, Han et. al., PNAS 2010, 107 (51), 22002-22007; A. baumannii PBPs, Penwell et. al., Antimicrob. Agents Chemother. 2015, 59 (3), 1680-1689; N. gonorrhoeae PBP2, Singh et. al., J Biol. Chem. 2019, 294 (38), 14020-14032). To establish assay conditions for competition binding, enzyme titration/saturation binding experiments were initially performed. Bocillin-FL was prepared at 0.2 μM in a buffer comprised of 50 mM Hepes (pH 8.0), 300 mM NaCl and 5% (v/v) glycerol for reactions with E. coli, P. aeruginosa and N. gonorrhoeae PBPs, and 25 mM Tris (pH 8.0), 200 mM NaCl and 10% (v/v) glycerol and 0.005% (v/v) Tween 20 for reactions with A. baumannii PBPs. Saturation binding was performed by mixing 40 μl of PBP solutions ranging in concentrations from 0-24 μM with 40 μl of the 0.2 μM Bocillin-FL solution, in individual wells of a black 384-well microplate. FP was measured immediately upon mixing (Excitation, 490 nm; Emission, 520 nm; g-factor, 0.96), using a Cytation3 (BioTek) microplate reader and measured continuously for up to 120 minutes. […] Bocillin-FL was added and the FP immediately measured for up to 60 minutes (90 minutes for E. coli PBP2). […]

A further test addresses A. baumannii PBP1a (Acinetobacter baumannii, UniProt A0ABX6CK30). The experiment in a line: Bocillin-FL fluorescence polarization competition binding assay, A. baumannii PBP1a.
From the text: as §3
To determine the ability of boronic acid-based test PBP inhibitors to bind Penicillin Binding Proteins (PBPs), Bocillin-FL (fluorescently-labeled penicillin V; ThermoFisher Scientific) was used in a fluorescence polarization (FP) competition binding assay to assess inhibitor binding to PBP2, PBP3 or PBP4 from Escherichia coli (K12), PBP3 from Pseudomonas aeruginosa (PA01), PBP1a, PBP2 and PBP3 from Acinetobacter baumannii (ATCC 19606), and PBP2 from Neiserria gonorrheae (FA19). PBPs were cloned and purified as described previously (E. coli PBPs, King, D. T, et al., ACS Infectious Diseases 2015, 1, 175-184; P. aeruginosa PBP3, Han et. al., PNAS 2010, 107 (51), 22002-22007; A. baumannii PBPs, Penwell et. al., Antimicrob. Agents Chemother. 2015, 59 (3), 1680-1689; N. gonorrhoeae PBP2, Singh et. al., J Biol. Chem. 2019, 294 (38), 14020-14032). To establish assay conditions for competition binding, enzyme titration/saturation binding experiments were initially performed. Bocillin-FL was prepared at 0.2 μM in a buffer comprised of 50 mM Hepes (pH 8.0), 300 mM NaCl and 5% (v/v) glycerol for reactions with E. coli, P. aeruginosa and N. gonorrhoeae PBPs, and 25 mM Tris (pH 8.0), 200 mM NaCl and 10% (v/v) glycerol and 0.005% (v/v) Tween 20 for reactions with A. baumannii PBPs. Saturation binding was performed by mixing 40 μl of PBP solutions ranging in concentrations from 0-24 μM with 40 μl of the 0.2 μM Bocillin-FL solution, in individual wells of a black 384-well microplate. FP was measured immediately upon mixing (Excitation, 490 nm; Emission, 520 nm; g-factor, 0.96), using a Cytation3 (BioTek) microplate reader and measured continuously for up to 120 minutes. […] The competition binding assay (80 μl final volume) was validated using beta-lactams and PBPs at final concentrations of: 1.5 μM, E. coli PBP3; 0.75 μM, P. aeruginosa PBP3; 1 μM A. baumannii PBP1a; 2.5 μM A. baumannii PBP2; 0.2 μM A. baumannii PBP3; and […] N. gonorrhoeae PBP2. Bocillin-FL was at 0.1 μM (0.05 μM with A. baumannii PBP1a) and beta-lactam concentrations ranged from 0-1000 μM. […] Bocillin-FL was added and the FP immediately measured for up to 60 minutes (90 minutes for E. coli PBP2). […] The beta-lactam potency was reported as the concentration of beta-lactam required to reduce the amount of PBP bound-Bocillin-FL by 50% (EC50). […] Binding assays for boronic acid PBP inhibitors were performed in an identical fashion for the respective PBPs

`CC1(C)S[C@@H]2[C@H](NC(=O)[C@H](N)c3ccccc3)C(=O)N2[C@H]1C(=O)O` [ampicillin, reference compound]: the pEC50 on E. coli K12 PBP1b and on E. coli K12 PBP1a was more than 6.30 throughout.

As to `C[C@@H](O)[C@H]1C(=O)N2C(C(=O)O)=C(S[C@@H]3CN[C@H](C(=O)N(C)C)C3)[C@H](C)[C@H]12` [meropenem, reference compound], the pEC50 is 6.64 on A. baumannii PBP3, more than 5.70 at E. coli K12 PBP4 and 6.64 at A. baumannii PBP1a.
